# Laboratory results reported in patent publication US7566805B2, “Modafinil compositions” (priority 2003, dated 2009).
# Read-outs that look alike come from different tables or passages of the source.
# How the values were obtained:
# [1] = Racemic modafinil:malonic acid co-crystal pharmacokinetic study in dogs (vs micronized pure modafinil); assay type: in vivo
# Description: As a reference, micronized modafinil with a median particle size of about 2 micrometers was also administered in the study.
# [2] = Dog pharmacokinetic study of a single intravenous dose of R-(−)-modafinil vs racemic modafinil; assay type: in vivo; conditions: dogs; for AUC(0-inf) / Cmax / Vd / clearance / half-life: dog, plasma, 5 mg/kg IV, Mean
# Text: A dog pharmacokinetic study (N=6) of a single intravenous dose of R-(−)-modafinil was completed. The purity of the R-(−)-modafinil in the administered formulation was ca 80 percent. This formulation was compared to a formulation of racemic modafinil, also administered by the intravenous route to the same dogs in a crossover design. Ir. Table VII, “Cmax” is the maximum blood plasma concentration, “AUC (inf)” is the extrapolated area under the curve, “t1/2” is the amount of time for the blood plasma level to decrease to half of the Cmax level beginning at administration, “Vd” is the volume of distribution, and “CL” is the clearance rate of modafinil.
# [3] = dogs, 30 mg/kg oral dose, plasma 2 to 9 hours post-dose, cited from earlier work; for Mean AUC (sulfone): sulfone metabolite
# [4] = cited from earlier work
# [5] = cited from earlier work; remark: listed apart in the source
# [6] = Solid-state stability of modafinil:malonic acid co-crystal at various temperatures and relative humidities; assay type: physicochemical; conditions: for degradation / degradation per day: four week period
# Description: At 60 degrees C., about 0.14 percent degradation per day was determined based on a simple exponential model. At 80 degrees C., about 8 percent degradation per day was determined.
# FIGS. 49 and 50 show the % area impurities as measured via HPLC versus time (weeks) for samples stored at various conditions including: 25 degrees C., 60% RH; 40 degrees C., 75 percent RH; 40 degrees C., ambient RH; 60 degrees C., ambient RH; 80 degrees C., ambient RH; and −20 degrees C.
# [7] = Dynamic vapor sorption isotherm; assay type: physicochemical; conditions: up to at least 40 percent RH at 26 degrees C.
# [8] = Pharmacokinetic study with dogs: modafinil:malonic acid formulated with lactose vs PROVIGIL tablets; assay type: in vivo
# Text: In Table VI, “Cmax” is the maximum blood plasma concentration, “AUC (inf)” is the extrapolated area under the curve, “t1/2” is the amount of time for the blood plasma level to decrease to half of the Cmax level beginning at administration, “Tmax” is the time to maximum blood plasma concentration from administration, “CL” is the clearance rate of modafinil, and “F %” is the percent bioavailability.
# [9] = In vitro dissolution in simulated gastric fluid (SGF) and simulated intestinal fluid (SIF); conditions: micronized, blended with lactose, HPMC capsules
# Description: Further aqueous solubility can be measured in simulated gastric fluid (SGF) or simulated intestinal fluid (SIF) rather than water.
# Both samples were blended with lactose and filled into HPMC capsules.
# [10] = second value listed in the cell
Molecule,pKa Values ([5]; first value listed in the cell),"pKa Values [5, 10]",further results
"NC(=O)C[S+]([O-])C(c1ccccc1)c1ccccc1 (racemic) [Racemic Modafinil, (±)-2-[(Diphenylmethyl)sulfinyl]acetamide]",–,–,"half-life ([1]; dog, in vivo): 2.1 ± 0.7 h; Cmax ([1]; dog, in vivo, median particle size 2 micrometers (pure modafinil), 16 micrometers (co-crystal)): 11000 ± 5900 ng/mL; Tmax ([1]; dog, in vivo, read-out: Tmax): 1.3 ± 0.6 h; AUC(0-inf) [2]: 15100 ng·h/mL; Cmax [2]: 8680 ng/mL; Vd [2]: 0.589 L/kg; clearance [2]: 5.68 mL/min/kg; half-life [2]: 1.05 h; Mean AUC (racemate) [3]: 46760 ± 6950 ng·h/mL; Mean AUC (sulfone) [3]: 35120 ± 6930 ng·h/mL; solubility in water [4]: practically insoluble"
Nc1ccc(C(=O)O)cc1 [4-aminobenzoic acid],4.7,–,–
Nc1ccncc1 [4-aminopyridine],10,–,–
CCOc1ccc(NC(N)=O)cc1 [4-ethoxyphenyl urea],~7-9,–,–
Nc1ncnc2nc[nH]c12 [Adenine],3.8,–,–
Oc1ncnc2[nH]ncc12 [Allopurinaol],10.2,–,–
N=C(N)NCCC[C@H](N)C(=O)O [Arginine],2.18,9.09,–
NC(=O)C[C@H](N)C(=O)O [Asparagine],2.02,8.5,–
CC1(C(=O)O)CCC(C(=O)O)C1(C)C (stereo not drawn) [Camphoric acid],–,5.83,–
N[C@@H](CS)C(=O)O [Cysteine],1.71,8.33,pKa Values ([5]; third value listed in the cell): 10.78
CN(C)CC(=O)O [Dimethylglycine],2.5,–,–
"NC(=O)C[S@+]([O-])C(c1ccccc1)c1ccccc1 [Example 40-983, S-(+)-2-[(Diphenylmethyl)sulfinyl]acetamide]",–,–,Mean AUC (racemate) [3]: 50940 ± 8770 ng·h/mL; Mean AUC (sulfone) [3]: 83120 ± 21660 ng·h/mL
O=C(O)[C@@H](O)[C@H](O)[C@H](O)[C@@H](O)C(=O)O [Galactaric acid],–,3.63,–
NC1[C@H](O)OC(CO)[C@@H](O)[C@H]1O (stereo partly drawn) [Glucosamine],6.91,–,–
O=C(O)CCCC(=O)O [Glutaric acid],2.7,4.5,–
CC[C@H](C)[C@H](N)C(=O)O [Isoleucine],2.32,9.76,–
O=C(O)[C@H](O)[C@@H](O)[C@H](O[C@@H]1O[C@H](CO)[C@H](O)[C@H](O)[C@H]1O)[C@H](O)CO [Lactobionic acid],3.2,–,–
CCCCCCCCCCCC(=O)O [Lauric acid],~4.5,–,–

Molecule,pKa Values ([5]; first value listed in the cell),"pKa Values [5, 10]",further results
NC(=O)c1cccnc1 [Nicotinamide],3.3,–,–
O=C(O)c1cc(=O)[nH]c(=O)[nH]1 [Orotic acid],5.85,8.95,–
CCCCCCCCCCCCCCCC(=O)O [Palmitic acid],4.9,–,–
N[C@@H](Cc1ccccc1)C(=O)O [Phenylalanine],~2,~9,–
Cc1ncc(CO)c(CN)c1O [Pyridoxamine],~9,–,–
Cc1ncc(CO)c(CO)c1O [Pyridoxine],~9,–,–
"NC(=O)C[S@@+]([O-])C(c1ccccc1)c1ccccc1 [R-(−)-modafinil, R-(−)-2-[(Diphenylmethyl)sulfinyl]acetamide]",–,–,AUC(0-inf) [2]: 15900 ng·h/mL; Cmax [2]: 7810 ng/mL; Vd [2]: 0.647 L/kg; clearance [2]: 5.67 mL/min/kg; half-life [2]: 1.53 h; difference in pharmacokinetics vs racemic modafinil ([2]; intravenous administration): no significant difference; Mean AUC (racemate) [3]: 97220 ± 12580 ng·h/mL; Mean AUC (sulfone) [3]: 8690 ± 1220 ng·h/mL
"Nc1ccc(C(=O)O)c(O)c1 [Salicylic acid, 4-amino]",3.25,10,pKa Values ([5]; third value listed in the cell): 3.5
C[C@@H](O)[C@H](N)C(=O)O [Threonine],2.15,9.12,–
N[C@@H](Cc1c[nH]c2ccccc12)C(=O)O [Tryptophan],–,9.39,–
CC(C)[C@H](N)C(=O)O [Valine],~4.5,~9,–
Cc1cc(N)c2ccccc2c1O [Vitamin K5],~9,–,melting point: 280 to 282 °C (dec.)
OC[C@@H](O)[C@H](O)[C@@H](O)CO [Xylitol],~9,–,–
Acetohydroxamic acid,8.7,–,–
Imidazole,6.92,–,–
Racemic Modafinil:Malonic Acid Co-crystal [Modafinil: malonic acid co-crystal],–,–,"AUC higher than that of the pure modafinil [1]: 40 to 60%; Tmax [1]: 1.7 ± 0.6 h; degradation ([6]; 20 degrees C.): No degradation; degradation ([6]; 40 degrees C.): No degradation; degradation per day ([6]; 60 degrees C., simple exponential model): about 0.14 percent degradation per day; degradation per day ([6]; 80 degrees C.): about 8 percent degradation per day; stability on storage (% area impurities via HPLC) ([6]; stored at or below 40 degrees C. for at least 26 weeks): stable; water adsorption (DVS) [7]: no appreciable water adsorption; CL ([8]; 200 mg modafinil, Mean): 368.33; Tmax ([8]; 200 mg modafinil, Mean): 2 h; AUC (inf) ([8]; 200 mg modafinil, Mean, extrapolated, in ng·h/mL): 50545.00; Cmax ([8]; 200 mg modafinil, Mean, in ng/mL): 11246.67; F % ([8]; 200 mg modafinil, Mean, percent bioavailability): 81.57%; Cmax compared with PROVIGIL tablets ([8]; FIG. 56): increased; release of modafinil into solution vs free form of modafinil ([9]; SGF): more quickly; release of modafinil into solution vs free form of modafinil ([9]; SIF): more quickly"
Urea,~8,–,–
